Assay results reported in patent US6841089B2, “Detoxification of onium compounds” (Baker Hughes Incorporated, priority 2001, dated 2005).

Legend:
Type in all cases: physicochemical
[1] = Quat removal from brine: additive, then heptane extraction, water layer analyzed for quat (Examples 1-4); conditions: brine of 97.50 g water and 2.50 μg sodium chloride dosed with 1.52 g methanolic quat solution; 90 ml sample; 1.00 g DDBSA or 0.90 g oleic acid; shaken 1 minute with 10 ml heptane; centrifuged
Experimental: A brine solution comprising 97.50 g of water and […] of sodium chloride was dosed with 1.52 g of a methanolic solution of a quat (solution contains 33% methanol and 67% RE 4136 quaternary ammonium compound available from Baker Petrolite). A 90 ml sample of the water, sodium chloride, quat solution was shaken by hand for 1 minute with 10 ml of heptane. The mixture is centrifuged to separate the layers and the water layer was analyzed for quat. The above test was repeated but in this case the sample was dosed with 1.00 g of dodecylbenzenesulfonic acid (DDBSA) or 0.90 g of oleic acid (as indicated) before the addition of heptane and shaken by hand. These two cases required prolonged centrifugation to separate the phases. Again, the water phase was analyzed for quat. The quat concentration is expressed in ppm of methanolic quat solution.

[2] = Quat removal from brine: additive without heptane, oil layer separated, water layer washed with heptane (Examples 5-6); conditions: same brine/quat solution, 90 ml; 0.45 g p-TSA or 0.74 g naphthenic acids; shaken 1 minute without heptane; water layer washed with 10 ml heptane
Experimental: In a second set of tests, a 90 ml sample of the above water, sodium chloride and quat solution was dosed with 0.45 g of para-toluenesulfonic acid (p-TSA) or 0.74 g of a mixture of naphthenic acids (as indicated). In this test, the mixture was shaken 1 minute by hand in the absence of heptane. The samples were centrifuged. An oil layer separated and remained at the top of the samples. The slightly hazy water layer was removed. The water layer was washed with 10 ml of heptane and again centrifuged. The clear water layer was analyzed for quat.

[3] = Quat removal from 16% sodium chloride brine suspension (Examples 7-8); conditions: brine of 84 g water and 16 g sodium chloride with 1.52 g quat solution, used as suspension; 90 ml; 0.45 g p-TSA or 0.74 g naphthenic acids
Experimental: In a third set of tests, a brine solution comprising 84 g of water and 16 g of sodium chloride was dosed with 1.52 g of the above quat solution. In this case, the quat separates to some extent from the brine on standing and was used immediately in the next step as a suspension. A 90 ml sample of this suspension was dosed with 0.45 g of p-TSA or 0.74 g of a mixture of naphthenic acids (as indicated). The samples were treated as above and analyzed for quat.

ppm of methanolic quat solution in water [1]	ppm of methanolic quat solution in water [2] [ppm]	ppm of methanolic quat solution in water [3] [ppm]	SMILES
76 ppm	–	–	CCCCCCCCCCCCc1ccc(S(=O)(=O)O)cc1 [DDBSA, dodecylbenzenesulfonic acid]
15,000 ppm	–	–	CCCCCCC [Heptane only, heptane]
121 ppm	–	–	CCCCCCCC/C=C\CCCCCCCC(=O)O [Oleic acid, oleic acid]
–	178	88	Cc1ccc(S(=O)(=O)O)cc1 [p-TSA, para-toluenesulfonic acid]
